One data set deals with P2X1. As to conditions: reviewer comment, no reference given; cited from earlier work.
Data set [1] concerns the molecule itself. Description: cryo-EM structure; single particle cryo-EM of purified hP2X1 in C12M (DDM)/CHS, 20 mM HEPES pH 7.0, 100 mM NaCl, 5 mg/mL; three states: apo closed, ATP-bound desensitized (endogenous ATP), NF449-bound inhibited (400 uM NF449).

The source of these data is publication PMC11448502, “Cryo-EM structures of the human P2X1 receptor reveal subtype-specific architecture and antagonism by supramolecular ligand-binding” (Nature Communications, 2024).

A word on the stoichiometry N: it is a count of units in the complex or per binding partner.

As to `Nc1ncnc2c1ncn2[C@@H]1O[C@H](COP(=O)(O)CP(=O)(O)OP(=O)(O)O)[C@@H](O)[C@H]1O` [α, β-MeATP], in the data set on P2X1, the “potency for P2X1 relative to P2X3” value is 10 times.

B1: full-length wild-type human P2X1 receptor (receptor, UniProt P51575 1-399, looked up)
chain: MARRFQEELAAFLFEYDTPRMVLVRNKKVGVIFRLIQLVVLVYVIGWVFLYEKGYQTSSGLISSVSVKLKGLAVTQLPGLGPQVWDVADYVFPAQGDNSFVVMTNFIVTPKQTQGYCAEHPEGGICKEDSGCTPGKAKRKAQGIRTGKCVAFNDTVKTCEIFGWCPVEVDDDIPRPALLREAENFTLFIKNSISFPRFKVNRRNLVEEVNAAHMKTCLFHKTLHPLCPVFQLGYVVQESGQNFSTLAEKGGVVGITIDWHCDLDWHVRHCRPIYEFHGLYEEKNLSPGFNFRFARHFVENGTNYRHLFKVFGIRFDILVDGKAGKFDIIPTMTTIGSGIGIFGVATVLCDLLLLHILPKRHYYKQKKFKYAEDMGPGAAERDLAATSSTLGLQENMRTS
modifications: N-linked glycosylation (N-acetylglucosamine modelled in the extracellular domain, e.g. at N184)
notes: human P2X1 receptor (P2X purinoceptor 1), full-length wild type, no mutations or truncations; Cytoplasmic N- and C-terminal residues are not visible in the maps; also called hP2X1; hP2X1-WT; source: HEK293 GNTI- cells, BacMam baculovirus transduction; solubilised in DDM/CHS, purified (TALON resin, HRV 3C protease digestion, SEC on Superdex 200 increase)
For the molecule B1, in data set [1], the “stoichiometry N” value was determined as 3.
